Like-named read-outs stand apart in the source and are kept apart here.
Experiments:
[1] = Cytotoxicity, PrestoBlue cell viability assay in BV-2 cells; type: cell-based, mouse; settings: mouse, BV-2 microglial cells; for viability at 24 h, 1 µM: 1 µM (log C -6); for viability at 24 h, 50 µM: 50 µM (log C -4.3); for viability at 24 h, 100 µM: 100 µM (log C -4); for IC50 at 24 h: PrestoBlue, mean ± SEM, read-out: Cytotoxicity in BV-2 Cells (IC50 x¯ ± SEM µM)
Method: (§1) We assessed their cytotoxic effects at five concentrations (0.1, 1, 10, 50, and 100 µM) in HT-22 (mouse hippocampal neuronal cells) and BV-2 (mouse microglial cells) cell lines using a fluorometric assay with PrestoBlue™ cell viability reagent (Table 4, Table S2 in the SI).
(§2) Mouse microglial cells (BV-2) were a generous gift from Professor Bozena Kaminska-Kaczmarek of the Laboratory of Molecular Neurobiology, Neurobiology Center, Nencki Institute of Experimental Biology, Polish Academy of Sciences, Warsaw, Poland. Cells were cultured in Dulbecco’s modified Eagle’s Medium-high glucose (DMEM, Glutamx Thermo Fisher, Waltham, MA, USA) supplemented with 10% inactivated fetal bovine serum (Thermo Fisher), 100 IU/mL penicillin (Merck), and 100 µg/mL streptomycin (Merck). Cells were cultured in flasks (area 175 cm^2, Nunc) and incubated at 37 °C, 5% CO2. To evaluate the level of NO, IL-6, and TNF-α and the effectiveness of the compounds tested, BV-2 microglia cells were cultured in 96-well culture plates (5 × 10^4 cells per well, Falcon). For the measurement of cell viability and cell membrane damage, cells were placed in 96-well culture plates (2 × 10^4 cells per well, Falcon). Before the tests, cells were grown for 24 h in the incubator (37 °C, 5% CO2). Mouse Hippocampal Neuronal Cell Line (HT-22) was a generous gift from Dr Bartosz Pomierny of the Department of Biochemical Toxicology, Jagiellonian University Medical College, Krakow, Poland. Cells were cultured in Dulbecco’s modified Eagle’s Medium-high glucose (DMEM, Glutamx Thermo Fisher) supplemented with 10% inactivated fetal bovine serum (Thermo Fisher), 100 IU/mL penicillin (Merck), and 100 µg/mL streptomycin (Merck). Cells were cultured in flasks (area 175 cm^2, Nunc) and incubated at 37 °C, 5% CO2. For the measurement of cell viability and neuroprotective effects against okadaic acid, cells were placed in 96-well culture plates (2 × 10^4 cells per well, Falcon). Before the tests, cells were grown for 24 h in the incubator (37 °C, 5% CO2).
(§3) Cell viability was evaluated using the PrestoBlue reagent (Thermo Fisher), according to the manufacturer’s procedures. Following 24 h of incubation with the tested molecule, PrestoBlue reagent was added to a microplate well in an amount equal to one-tenth of the remaining medium volume. The resulting mixture was incubated for 15 min at 37 °C, and the fluorescence intensity (EX 530; EM 580 nm) was measured using the plate reader POLARstar Omega, (BMG Labtech, Ortenberg, Germany). The results (viability values) are provided as a percentage of live cells with respect to DMSO (control sample).
(§4) Cytotoxic effects of selected inhibitors in HT-22 mouse hippocampal neuronal cells and BV-2 mouse microglial cells
(§5) Table S2. Cytotoxic effects of selected inhibitors in HT-22 mouse hippocampal neuronal cells and BV-2 mouse microglial cells. neurotoxicity in HT-22 cellsa immunotoxicity in BV-2 cellsa […]
(§6) a % of cell viability at the given concentration of tested compound; mean value ± standard deviation (SD) of triplicates; b half maximal inhibitory concentration of the tested compound; mean value ± standard error of the mean (SEM) of triplicates; c data obtained in log C of 39 of -8.5; -7.5; -6.5; -5.5; -5, respectively; d data obtained in log C of 49 of -7.5; -6.5; -5.5; -4.5; -4. respectively; nt, not tested.

[2] = tested on: BV-2 (mouse microglial cells); experiment: as above; type: cell-based; settings: for effect on cell viability in BV-2 cells (in words): 0.1, 1, 10, 50, and 100 µM
Method: as §1, §2, §3, §4, §5, §6

GSK-3β = GSK-3β (Homo sapiens, UniProt P49841); experiment: ADP-Glo kinase assay, GSK-3β inhibition; type: biochemical; parameters: purchased Promega; settings: for IC50: mean ± SEM, ATP 25 µM
Text: We evaluated the inhibitory activity of the final compounds against GSK-3β, IKK-β, and ROCK-1 kinases using the commercially available ADP-Glo™ kinase assay. The method was based on the measurement of luminescence that correlates with kinase activity. […] The latter are inhibitors of the kinases of interest and were integral to the design of our studies.
Promega’s Kinase Enzyme Systems (Promega; Madison, WI, USA) were used to determine the activities of the tested compounds against the human recombinant kinases GSK-3β, IKK- β, and ROCK-1. The assays were performed according to the provided manufacturer’s instruction, based on the optimized conditions of the enzymatic reactions, using the low-volume, white polystyrene, 384-well plates. The ADP-Glo™ Assay (Promega; Madison, WI, USA) was used for bioluminescent detection of the kinase activity. Stock solutions of the tested compounds in DMSO (1mM) were diluted with the Kinase Assay Buffer before use (40 mM Tris, pH 7.5, enriched with 50 µM dithiothreitol; DTT), giving the final desired concentrations. The kinase enzymes, substrates, and ATP solutions were also diluted with the assay buffer prior to use. The GSK-3β, IKK-β, and ROCK-1 substrates were derived from human muscle glycogen synthase 1, human IkBA, and human 40S ribosomal protein S6, respectively. The assay procedure was as follows: At first, the appropriate kinase enzyme (GSK-3β: 10 ng per well; IKK-β: 45 ng per well; ROCK-1: 24 ng per well) was incubated with the tested sample (10 µM in well) for 5 min. The DMSO solution (1% in well) was used in the blank samples instead of the tested inhibitors. After the incubation period, ATP (25 µM per well in the case of GSK-3β and IKK-β kinases; 5 µM per well in the case of ROCK-1 kinase) and an appropriate enzyme substrate (0.2 µg/µL in well) were added to start the enzymatic reaction. The reaction mixture was kept at room temperature for 1 h; then, the ADP-Glo™ reagent was added, to terminate the kinase reaction and deplete any remaining ATP. After 40 min, a second reagent (Kinase Detection Reagent) was applied to convert the obtained ADP to ATP and to generate light from the newly synthesized ATP using a luciferase/luciferin reaction. The mixture was incubated for another 30 min at room temperature before the luminescence was measured. The calculations of the percent of kinases’ inhibition by tested compounds were based on the equation 100 − (S/B) × 100; S and B are the enzyme activities with and without the tested sample, respectively. […] Each compound was evaluated in two independent experiments, with every data point collected in duplicate.

[3] = 24 h, read-out: immunotoxicity in BV-2 cells, % of cell viability
[4] = 10 µM (log C -5), 24 h, read-out: immunotoxicity in BV-2 cells, % of cell viability

Sequence of GSK-3β (P49841 whole entry): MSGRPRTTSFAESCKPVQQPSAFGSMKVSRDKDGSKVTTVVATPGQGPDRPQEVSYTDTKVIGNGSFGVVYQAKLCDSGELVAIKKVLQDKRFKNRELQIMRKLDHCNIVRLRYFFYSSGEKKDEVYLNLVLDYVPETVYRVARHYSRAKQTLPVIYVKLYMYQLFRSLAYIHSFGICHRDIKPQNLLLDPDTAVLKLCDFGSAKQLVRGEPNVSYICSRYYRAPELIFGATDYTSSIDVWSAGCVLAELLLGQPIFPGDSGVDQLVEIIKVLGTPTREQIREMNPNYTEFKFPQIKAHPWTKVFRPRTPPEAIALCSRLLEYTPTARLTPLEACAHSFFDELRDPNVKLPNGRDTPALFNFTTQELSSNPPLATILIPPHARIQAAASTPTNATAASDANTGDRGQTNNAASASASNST

SMILES	IC50 (GSK-3β)	viability at 24 h, 1 µM [1, 3]	viability at 24 h, 10 µM [1, 4]	viability at 24 h, 50 µM [1, 3]	viability at 24 h, 100 µM [1, 3]	IC50 at 24 h ([1]; 24 h)	viability at 24 h, 0.1 µM [1, 3]	effect on cell viability in BV-2 cells (in words) [2]	effect on viability of BV-2 cells at concentrations up to 10 µM (in words) [2]	viability at 24 h, 10 µM ([1]; log C -5 (footnote c; printed in column 100 µM), read-out: immunotoxicity in BV-2 cells, % of cell viability)	viability at 24 h, 3.16 µM ([1]; log C -5.5 (footnote c; printed in column 50 µM), read-out: immunotoxicity in BV-2 cells, % of cell viability)	viability at 24 h, 0.316 µM ([1]; log C -6.5 (footnote c; printed in column 10 µM), read-out: immunotoxicity in BV-2 cells, % of cell viability)	inhibition at 10 µM (GSK-3β; 10 µM, mean ± SD, read-out: % inh. at 10 µM GSK-3β)
O=C1NC2(CCOC2)Nc2cc(-c3ccnc(NC(=O)C4CC4)c3)sc21 (stereo not shown) [Compound 62, N-(4-(4′-Oxo-3′,4,4′,5-tetrahydro-1′H,2H-spiro[furan-3,2′-thieno [3,2-d]pyrimidin]-6′-yl)pyridin-2-yl)cyclopropanecarboxamide]	8 nM	106%	105%	5%	2%	54.8 ± 1.9 µM	105%	decreased cells’ viability	did not decrease the viability of the cells				
NC(=O)Nc1cc(-c2cccc(NC(=O)C3CC3)c2)sc1C(N)=O [Compound 58, 5-(3-(Cyclopropanecarboxamido)phenyl)-3-ureidothiophene-2-carboxamide]		107%	97%	52%	13%	51.4 ± 0.8 µM	106%	decreased cells’ viability	did not decrease the viability of the cells				36%

Now from value to molecule, other results behind:

IC50 (GSK-3β)	SMILES	viability at 24 h, 1 µM [1, 3]	viability at 24 h, 10 µM [1, 4]	viability at 24 h, 50 µM [1, 3]	viability at 24 h, 100 µM [1, 3]	IC50 at 24 h ([1]; 24 h)	viability at 24 h, 0.1 µM [1, 3]	effect on cell viability in BV-2 cells (in words) [2]	effect on viability of BV-2 cells at concentrations up to 10 µM (in words) [2]	viability at 24 h, 10 µM ([1]; log C -5 (footnote c; printed in column 100 µM), read-out: immunotoxicity in BV-2 cells, % of cell viability)	viability at 24 h, 3.16 µM ([1]; log C -5.5 (footnote c; printed in column 50 µM), read-out: immunotoxicity in BV-2 cells, % of cell viability)	viability at 24 h, 0.316 µM ([1]; log C -6.5 (footnote c; printed in column 10 µM), read-out: immunotoxicity in BV-2 cells, % of cell viability)	inhibition at 10 µM (GSK-3β; 10 µM, mean ± SD, read-out: % inh. at 10 µM GSK-3β)
10 nM	CC1(C)NC(=O)c2sc(-c3ccnc(NC(=O)C4CC4)c3)cc2N1 [Compound 40, N-(4-(2,2-Dimethyl-4-oxo-1,2,3,4-tetrahydrothieno [3,2-d]pyrimidin-6-yl)pyridin-2-yl)-cyclopropanecarboxamide]	109%	9%	2%	2%	3.6 ± 0.7 µM	106%	decreased cells’ viability					
32 ± 1 nM	CC1(C)NC(=O)c2sc(-c3ccnc(NC(=O)C4CCC4)c3)cc2N1 [Compound 41, N-(4-(2,2-Dimethyl-4-oxo-1,2,3,4-tetrahydrothieno [3,2-d]pyrimidin-6-yl)pyridin-2-yl)-cyclobutanecarboxamide]							decreased cells’ viability					
12 nM	CC(C)C(=O)Nc1cc(-c2cc3c(s2)C(=O)NC(C)(C)N3)ccn1 [Compound 39, N-(4-(2,2-Dimethyl-4-oxo-1,2,3,4-tetrahydrothieno [3,2-d]pyrimidin-6-yl)pyridin-2-yl)isobutyramide]					4.5 ± 1.9 µM		decreased cells’ viability		14%	73%	105%	

From paper PMC11173485, “Connecting GSK-3β Inhibitory Activity with IKK-β or ROCK-1 Inhibition to Target Tau Aggregation and Neuroinflammation in Alzheimer’s Disease—Discovery, In Vitro and In Cellulo Activity of Thiazole-Based Inhibitors” (Molecules, 2024)
